Laboratory results published in US7749491B2, “Compounds and methods to enhance rAAV transduction” (priority 2003, dated 2010).

Legend:
[1] = test system: polarized human bronchial epithelial cells; type: cell-based; conditions: for rAAV transduction from the basolateral surface with ubiquitin ligase inhibitors: both inhibitors combined, 2 mM pretreatment 60 minutes, then 0.2 mM; for rAAV transduction from the apical surface: apical infection, data not shown
Experimental: Primary culture of human bronchial epithelia and reagents utilized. Primary human airway epithelial cells were collected by enzymatic digestion of bronchial samples from lung transplants, as previously described (Kondo et al., 1991; Zabner et al., 1996). Isolated primary airway cells were seeded at a density of 5×10^5 cells/cm^2 onto collagen-coated Millicell-HA culture inserts (Millipore Corp., Bedford, Mass.). Primary cultures were grown at the air-liquid interface for more than 2 weeks, by which time differentiation into a mucociliary epithelium occurs. The culture medium, used to feed only the basolateral side of the cells, contained 49% DMEM, 49% Ham's F12 and 2% Ultraser G (BioSepra, Cedex, France). Dimethyl Sulphoxide (DMSO), camptothecin (Camp), etoposide (Etop), aphidicolin (Aphi), hydroxyurea (HU) and genistein (Geni) were purchased from Sigma (St. Louis, Mo.). Tripeptidyl aldehyde proteasome inhibitors N-Acetyl-L-Leucyl-L-Leucyl-Norleucine (LLnL) and benzyloxycarbonyl-L-leucyl-L-leucyl-L-leucinal (Z-LLL) were purchased from Calbiochem-Novabiochem Corporation (La Jolla, Calif.). Ubiquitin ligase (E3) inhibitors were obtained from Bachem Bioscience Inc. (King of Prussia, Pa.). Anti-AAV capsid monoclonal antibody (Anti-VP1, 2 and 3) was purchased from American Research Products (Belmont, Mass.) and anti-ubiquitin antibody was purchased from Santa Cruz Biotechnology Inc. (Santa Cruz, Calif.).
Transduction of polarized airway epithelial cells and primary human fibroblasts. rAAV infection of fully differentiated bronchial cells was performed as described in Duan et al. (1998). For infections from the apical surface of the airway cells, 5 μl rAAV was mixed with 50 μl of culture media and applied directly onto the apical compartment of Millicell inserts (MOI=10,000 particles/cell). During apical infection, the basolateral side of the Millicell was continuously bathed in culture media. Gene transfer to the basal side was performed by inverting Millicell inserts and applying viral vector to the bottom of the supporting filter membrane in a 50 μl volume for 2 hours. Subsequently, Millicell inserts were returned to the upright position, in the continued presence of the original viral inoculum plus an additional 450 μl of media. For both apical and basolateral infections, rAAV containing media was removed after 24 hours and replaced with either fresh culture media (for the basal side) or exposed to air (for the apical side). To test the effect of different agents on the efficiency of AAV transduction in polarized airway cells, 1 μl of each solution was mixed with AAV prior to infection of airway epithelia. Agents were usually presented during the 24 hours AAV infection period unless indicated otherwise. Most of the agents were dissolved in DMSO except for hydroxyurea (dissolved in phosphate buffered saline), H-Leu-Ala-OH (dissolved in 0.9% glacial acetic acid) and H-His-Ala-OH (dissolved in 50% methanol). The working concentrations of the agents were as follows: 0.1 μM camptothecin, 10 μM etoposide, 5 μg/ml aphidicolin, 40 mM hydroxyurea, 50 μM genistein, 40 μM LLnL and 4 μM Z-LLL. When the ubiquitin ligase (E3) inhibitors (H-Leu-Ala-OH and H-His-Ala-OH) were used, airway cells were pretreated with a combination of both inhibitors at a final concentration of 2 mM for 60 minutes prior to infection, followed by the continued presence of inhibitor (0.2 mM) during the entire 24 hours infection period from the basolateral surface. Studies involving EGTA treatment were performed by transiently treating the apical membrane of polarized airway epithelia with 3 mM EGTA in water for 10 minutes (Duan et al., 1998). Following hypotonic EGTA treatment, cultures were washed twice with culture medium and infected with rAAV in the presence or absence of 40 μM LLnL. Human primary fibroblast cells (P4) were maintained in 10% fetal bovine serum (FBS), 1% penicillin and streptomycin, and 89% DMEM. […]

[2] = test system: HeLa cells; experiment: AAV2 FLAG-Luc transduction of HeLa cells (luciferase screen of agents); type: cell-based; conditions: for relative potency of anthracyclines: 0.6, 3 and 6 μg/mL; for increase of transduction efficiency: MOI of 100, 2 hours infection, at the doses tested
Excerpt: A. To screen for agents that enhance rAAV transduction, any number of cells can be used. A range of concentrations of the agent to be tested can be determined based on, for instance desirable profiles of the agent, desirable toxicity profiles of the agent and/or concentration of the agents employed in vivo. The usefulness of the cell type chosen for the screen can be confirmed by testing compounds, e.g., proteosome inhibitors described in Example 1 such as LLnL and ZLL which are known to increase rAAV transduction. For example, a AAV2 FLAG-Luc vector was employed to transduce HeLa, ferret fibroblasts, IB3 and Huh (liver) cells in the presence or absence of the proteosome inhibitor MG132. MG132 was confirmed to enhance AAV transduction in all cell types tested: HeLa cell transduction was enhanced about 500-fold at 80 μM, and 200-fold at 40 μM, MG132; ferret fibroblast cell transduction was enhanced about 200-fold at 20 μM, and 17-fold at 4 μM, MG132; IB3-1 cell transduction was enhanced about 30 to 70-fold at 20 to 80 μM MG132; and Huh-7 cell transduction was enhanced about 15-fold at 20 to 80 μM MG132. There was no difference in rAAV transduction efficiency in HeLa cells when either DMSO or ETOH was used as a vehicle for MG132. B. HeLa cells were selected to screen for additional agents that enhance rAAV transduction, although any cell strain or line; or primary cells, may be employed. […] The range of concentrations of the agents to be tested were selected based on solubility profiles, toxicity profiles and/or concentrations previously employed in vivo.
HeLa cells were infected for 2 hours with an MOI of 100 rAAV in the presence of agents, e.g., ritonavir (Norvir) (1, 10 and 100 μM), cyclosporin A (2.5, 25 and 250 μg/ml), epoxomicin (1, 10 and 50 μM), alcacinomycin A (5, 50 or 500 μM), chymostatin (1, 10 and 100 μM), bestatin (1, 10 and 100 μM), doxorubicin (adriamycin) (0.1, 1 and 10 μM), camptothecin (camptosar) (1, 10 and 100 μM), eicosapentanoic acid (1, 10 and 100 μM), tannic acid (2, 20, 200 and 2000 μM), simvastatin, prodrug (2, 20 and 200 μM), cisplatin (0.2, 2 and 20 μg/mL), and chloroquine (4, 40 and 400 μM). Forty-eight hours after infection, cells were harvested for analysis. rAAV transduction was measured by removing the media from the cell cultures, adding 100 μL reporter lysis buffer (RLB) and freezing. The supernatant was thawed and transferred to microfuge tubes, freeze thawed an additional 2 times, clarified by centrifugation for 10 minutes and then analyzed for reporter gene expression on the luminometer. Protein was determined by Bradford analysis and results were expressed as relative light units per mg protein (RLU/mg).
Based on results with doxorubicin, a small number of FDA approved anthracyclines were tested for their relative in vitro and in vivo activities on AAV transduction. HeLa cells were infected with 100 ppc AAV2FLAG-Luc for 2 hours in the presence of different anthracyclines, e.g., doxorubicin, daunarubicin (Cerubidine), epirubicin (Ellence™), and idarubicin (Idamycin®), and cells harvested 48 hours later. The anthracyclines were pharmaceutical grade, and prepared according to the manufacturer's instructions. Prior to use, the agents were diluted in sterile water to an equal mass, e.g., 0.6 μg/mL, 3 μg/mL and 6 μg/mL. For example, 3 μg/mL idamycin increased luciferase expression by over 5000-fold while doxorubin increased luciferase expression by 58-fold. Generally, the potency was as follows: idarubicin>daunarubicin>epirubicin>doxorubicin.

For H-His-Ala-OH, the “rAAV transduction from the basolateral surface with ubiquitin ligase inhibitors” value [1] was “enhanced rAAV transduction from the basolateral surface”.
COc1cccc2c1C(=O)c1c(O)c3c(c(O)c1C2=O)C[C@@](O)(C(C)=O)C[C@@H]3O[C@H]1C[C@H](N)[C@H](O)[C@H](C)O1 [daunarubicin] was tested, and the “relative potency of anthracyclines” value [2] was “idarubicin>daunarubicin>epirubicin>doxorubicin”.
In the case of N.N.[Cl][Pt][Cl] [cisplatin], the “increase of transduction efficiency” value ([2]; harvested 48 hours) is reported as 16 fold.
For H-Leu-Ala-OH, the “rAAV transduction from the basolateral surface with ubiquitin ligase inhibitors” value [1] was “enhanced rAAV transduction from the basolateral surface”.
COc1cc([C@@H]2c3cc4c(cc3[C@@H](O[C@@H]3O[C@@H]5CO[C@@H](C)O[C@H]5[C@H](O)[C@H]3O)[C@H]3COC(=O)[C@H]23)OCO4)cc(OC)c1O [etoposide] was tested, and the “rAAV transduction from the apical surface” value [1] was “none of these agents facilitated rAAV transduction from the apical surface”.
For CC[C@@]1(O)C(=O)OCc2c1cc1n(c2=O)Cc2cc3ccccc3nc2-1 [camptothecin], the “rAAV transduction from the apical surface” value [1] was “none of these agents facilitated rAAV transduction from the apical surface” and the “increase of transduction efficiency” value ([2]; harvested 48 hours) was 15 fold.
In the case of CC(=O)[C@]1(O)Cc2c(O)c3c(c(O)c2[C@@H](O[C@H]2C[C@H](N)[C@H](O)[C@H](C)O2)C1)C(=O)c1ccccc1C3=O [idamycin, idarubicin], the “increase of luciferase expression” value ([2]; 3 μg/mL, 100 ppc AAV2FLAG-Luc 2 hours, harvested 48 hours) is reported as “over 5000 fold” and the “relative potency of anthracyclines” value [2] is reported as “idarubicin>daunarubicin>epirubicin>doxorubicin”.
CC[C@H](C)[C@H](NC(=O)[C@H]([C@@H](C)CC)N(C)C(C)=O)C(=O)N[C@H](C(=O)N[C@@H](CC(C)C)C(=O)[C@@]1(C)CO1)[C@@H](C)O [epoxomicin] was tested, and the “increase of transduction efficiency” value ([2]; harvested 48 hours) was at most 120 fold.
In the case of CCC(C)(C)C(=O)O[C@H]1C[C@@H](C)C=C2C=C[C@H](C)[C@H](CC[C@@H]3C[C@@H](O)CC(=O)O3)[C@H]21 [simvastatin], the “increase of transduction efficiency” value ([2]; harvested 48 hours) is reported as 4 fold.
For CC[C@H](C)C(=O)O[C@H]1C[C@@H](C)C=C2C=C[C@H](C)[C@H](CC[C@@H]3C[C@@H](O)CC(=O)O3)[C@H]21 [lovastatin], the “outcome in cell line screening” value ([2]; HeLa screen) was “negative results”.
In the case of O=c1c(-c2ccc(O)cc2)coc2cc(O)cc(O)c12 [genistein], the “rAAV transduction from the apical surface” value [1] is reported as “none of these agents facilitated rAAV transduction from the apical surface”.
With O=C(OC[C@H]1O[C@@H](OC(=O)c2cc(O)c(O)c(OC(=O)c3cc(O)c(O)c(O)c3)c2)[C@H](OC(=O)c2cc(O)c(O)c(OC(=O)c3cc(O)c(O)c(O)c3)c2)[C@@H](OC(=O)c2cc(O)c(O)c(OC(=O)c3cc(O)c(O)c(O)c3)c2)[C@@H]1OC(=O)c1cc(O)c(O)c(OC(=O)c2cc(O)c(O)c(O)c2)c1)c1cc(O)c(O)c(OC(=O)c2cc(O)c(O)c(O)c2)c1 [tannic acid] the “increase of transduction efficiency” value ([2]; harvested 48 hours) was 17 fold.
